# Test results published in patent publication US9353067B2, “Heterocyclic compounds and uses thereof in the treatment of sexual disorders” (ATIR Holding S.A., priority 2011, dated 2016).
# How the values were obtained:
# [1] = test system: Adrenergic α1 receptor; experiment: Competitive binding, prazosin radioligand; set-up: species or system Wistar rat
# Procedure: (§1) R-55 (which comprises a 3-hydroxyphenyl moiety) and the structurally related compounds N-108 (2-{[4-(2-ethoxyphenyl)piperazin-1-yl]methyl}quinazolin-4(3H)-one) and B-39 (7-chloro-2-((5,6-dihydro-4-(2-methoxyphenyl)pyridin-1(2H)-yl)methyl)quinazolin-4(3H)-one) were assayed for competitive binding to a variety of receptors, including D4.4 type dopamine receptor, in order to assess their specificity for D4.4 dopamine receptors.
# (§2) The receptors were expressed as human recombinant proteins in CHO cells, except for adrenergic α1 and α2 receptors which were expressed in Wistar rat brain and cerebral cortex cells, respectively, and melanocortin MC4 receptor which was expressed in human recombinant HEK-293 cells. Binding was determined using the following radioligands in the presence of various concentrations of the tested compound:
# 0.25 nM prazosin for adrenergic α1 receptor,
# (§3) The binding assays were performed in accordance with procedures described in the literature (Greengrass & Bremner, 1979; Boyajian & Leslie, 1987; Broadhurst, 1988; Lewis, 2001; Sutton, 1995; Dearry, 1990; Zhou, 1990; Grandy, 1989; Hayes, 1992; Sokoloff, 1990; Van Tol, 1991; Van Tol 1992; Sunahara, 1991; Weinshank, 1991; Schioth, 1996; Schioth 1997; Martin & Humphrey, 1994; May, 2003; Wolf & Schutz, 1997).
# [2] = test system: Adrenergic α2 receptor; experiment: Competitive binding, rauwolscine radioligand; set-up: species or system Wistar rat
# Procedure: as §1, §2
# 0.7 nM rauwolscine for adrenergic α2 receptor,
# as §3
# [3] = target: CRF1 receptor (Homo sapiens (Human), UniProt P34998); experiment: Competitive binding, (Tyr0)-CRF radioligand
# Procedure: as §1, §2
# 0.05 nM)(Tyr^0)-corticotropin releasing factor (CRF) for corticotropin releasing factor CRF1 receptor,
# as §3
# [4] = target: Dopamine D1 receptor (Homo sapiens (Human), UniProt P21728); experiment: Competitive binding, SCH-23390 radioligand
# Procedure: as §1, §2
# (§4) 1.4 nM and 2 nM SCH-23390, respectively, for dopamine D1 and D5 receptors,
# as §3
# [5] = target: Dopamine D5 receptor (Homo sapiens (Human), UniProt P21918); experiment: Competitive binding, SCH-23390 radioligand
# Procedure: as §1, §2, §4, §3
# [6] = target: Dopamine D2S receptor (Homo sapiens (Human), UniProt P14416); experiment: Competitive binding, spiperone radioligand
# Procedure: as §1, §2
# (§5) 0.16 nM, 0.7 nM and 1.2 nM spiperone, respectively, for dopamine D2S, D3 and D4.4 receptors,
# as §3
# [7] = target: Dopamine D3 receptor (Homo sapiens (Human), UniProt P35462); experiment: Competitive binding, spiperone radioligand
# Procedure: as §1, §2, §5, §3
# [8] = target: Dopamine D4.4 receptor (Homo sapiens (Human), UniProt P21917); experiment: Competitive binding, spiperone radioligand
# Procedure: as §1, §2, §5, §3
# [9] = target: Melanocortin MC4 receptor (Homo sapiens (Human), UniProt P32245); experiment: Competitive binding, NDP-α-MSH radioligand
# Procedure: as §1, §2
# 0.02 nM NDP-α-MSH for melanocortin MC4 receptor,
# as §3
# [10] = target: Serotonin 5-HT1A receptor (Homo sapiens (Human), UniProt P08908); experiment: Competitive binding, 8-OH-DPAT radioligand
# Procedure: as §1, §2
# 1.5 nM 8-OH-DPAT for serotonin 5-HT1A receptor, and
# as §3
# [11] = target: Serotonin 5-HT2C receptor (Homo sapiens (Human), UniProt P28335); experiment: Competitive binding, mesulergine radioligand
# Procedure: as §1, §2
# 1 nM mesulergine for serotonin 5-HT2C receptor.
# as §3
# Chain of Dopamine D4.4 receptor (P21917 whole entry): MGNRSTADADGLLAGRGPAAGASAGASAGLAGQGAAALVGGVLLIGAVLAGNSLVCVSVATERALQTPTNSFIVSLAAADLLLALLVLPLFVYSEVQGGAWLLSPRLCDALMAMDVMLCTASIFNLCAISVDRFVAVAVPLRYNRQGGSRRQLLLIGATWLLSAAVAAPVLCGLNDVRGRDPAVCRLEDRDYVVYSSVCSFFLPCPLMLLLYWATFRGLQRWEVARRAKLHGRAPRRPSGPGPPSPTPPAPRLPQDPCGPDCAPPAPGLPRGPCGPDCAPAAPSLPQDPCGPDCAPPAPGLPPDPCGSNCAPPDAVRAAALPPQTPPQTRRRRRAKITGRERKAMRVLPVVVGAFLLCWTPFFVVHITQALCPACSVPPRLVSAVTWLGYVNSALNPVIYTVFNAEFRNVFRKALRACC
# Chain of Dopamine D2S receptor (P14416 other isoform, or with tags, fused parts or gaps): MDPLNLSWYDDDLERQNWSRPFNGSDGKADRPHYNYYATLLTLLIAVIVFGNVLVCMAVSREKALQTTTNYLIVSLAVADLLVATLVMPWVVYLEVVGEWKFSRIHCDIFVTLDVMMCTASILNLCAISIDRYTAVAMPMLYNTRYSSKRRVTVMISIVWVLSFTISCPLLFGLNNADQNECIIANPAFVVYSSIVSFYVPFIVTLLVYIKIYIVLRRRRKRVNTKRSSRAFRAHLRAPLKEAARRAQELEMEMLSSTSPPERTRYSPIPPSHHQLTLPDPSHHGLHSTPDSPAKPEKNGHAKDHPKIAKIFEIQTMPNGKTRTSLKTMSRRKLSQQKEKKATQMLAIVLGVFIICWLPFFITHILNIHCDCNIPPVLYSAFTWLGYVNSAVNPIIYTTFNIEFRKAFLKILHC
# Chain of Dopamine D1 receptor (P21728 whole entry): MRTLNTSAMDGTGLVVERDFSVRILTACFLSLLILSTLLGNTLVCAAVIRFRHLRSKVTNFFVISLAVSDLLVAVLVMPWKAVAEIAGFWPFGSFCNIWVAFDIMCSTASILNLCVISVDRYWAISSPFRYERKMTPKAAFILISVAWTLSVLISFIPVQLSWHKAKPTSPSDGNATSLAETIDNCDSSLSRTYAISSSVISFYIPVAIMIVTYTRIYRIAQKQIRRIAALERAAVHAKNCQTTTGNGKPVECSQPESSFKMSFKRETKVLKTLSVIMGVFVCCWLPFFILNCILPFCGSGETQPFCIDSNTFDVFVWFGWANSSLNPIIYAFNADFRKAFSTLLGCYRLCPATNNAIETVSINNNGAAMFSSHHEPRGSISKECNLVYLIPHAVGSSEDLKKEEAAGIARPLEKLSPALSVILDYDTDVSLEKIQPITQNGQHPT
# Chain of CRF1 receptor (P34998 24-415): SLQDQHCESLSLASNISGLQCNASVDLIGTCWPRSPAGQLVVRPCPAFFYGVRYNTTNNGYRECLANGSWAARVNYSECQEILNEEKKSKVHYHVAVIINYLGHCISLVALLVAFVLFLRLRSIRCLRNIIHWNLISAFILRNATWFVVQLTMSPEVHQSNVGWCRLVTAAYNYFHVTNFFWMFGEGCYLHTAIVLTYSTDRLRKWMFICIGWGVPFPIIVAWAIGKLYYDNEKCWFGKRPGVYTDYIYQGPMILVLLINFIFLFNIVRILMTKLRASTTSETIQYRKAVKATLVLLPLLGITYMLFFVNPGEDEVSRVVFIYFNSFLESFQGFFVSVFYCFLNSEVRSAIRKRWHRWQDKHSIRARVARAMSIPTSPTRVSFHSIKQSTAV
# Chain of Dopamine D3 receptor (P35462 whole entry): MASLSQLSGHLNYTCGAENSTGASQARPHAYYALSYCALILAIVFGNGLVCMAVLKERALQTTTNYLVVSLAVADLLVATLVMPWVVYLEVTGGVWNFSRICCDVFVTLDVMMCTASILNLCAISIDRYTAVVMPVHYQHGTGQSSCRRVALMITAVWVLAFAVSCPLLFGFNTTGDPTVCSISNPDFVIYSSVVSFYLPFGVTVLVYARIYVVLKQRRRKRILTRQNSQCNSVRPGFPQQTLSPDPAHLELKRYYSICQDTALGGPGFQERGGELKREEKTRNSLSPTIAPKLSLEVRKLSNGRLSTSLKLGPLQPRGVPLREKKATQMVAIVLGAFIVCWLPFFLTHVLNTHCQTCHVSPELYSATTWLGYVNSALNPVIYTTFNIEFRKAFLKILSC
# Chain of Serotonin 5-HT1A receptor (P08908 whole entry): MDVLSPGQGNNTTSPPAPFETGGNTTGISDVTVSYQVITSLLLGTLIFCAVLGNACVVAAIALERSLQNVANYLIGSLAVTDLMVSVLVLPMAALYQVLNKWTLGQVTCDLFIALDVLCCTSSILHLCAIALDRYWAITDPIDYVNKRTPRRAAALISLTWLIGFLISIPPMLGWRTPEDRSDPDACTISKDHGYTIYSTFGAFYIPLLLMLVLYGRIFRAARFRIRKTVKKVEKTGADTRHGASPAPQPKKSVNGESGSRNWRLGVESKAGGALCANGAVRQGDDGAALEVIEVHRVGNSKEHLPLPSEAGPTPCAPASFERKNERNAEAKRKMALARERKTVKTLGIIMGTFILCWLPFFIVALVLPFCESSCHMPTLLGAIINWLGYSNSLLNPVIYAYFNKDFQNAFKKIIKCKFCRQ
# Chain of Serotonin 5-HT2C receptor (P28335 33-458): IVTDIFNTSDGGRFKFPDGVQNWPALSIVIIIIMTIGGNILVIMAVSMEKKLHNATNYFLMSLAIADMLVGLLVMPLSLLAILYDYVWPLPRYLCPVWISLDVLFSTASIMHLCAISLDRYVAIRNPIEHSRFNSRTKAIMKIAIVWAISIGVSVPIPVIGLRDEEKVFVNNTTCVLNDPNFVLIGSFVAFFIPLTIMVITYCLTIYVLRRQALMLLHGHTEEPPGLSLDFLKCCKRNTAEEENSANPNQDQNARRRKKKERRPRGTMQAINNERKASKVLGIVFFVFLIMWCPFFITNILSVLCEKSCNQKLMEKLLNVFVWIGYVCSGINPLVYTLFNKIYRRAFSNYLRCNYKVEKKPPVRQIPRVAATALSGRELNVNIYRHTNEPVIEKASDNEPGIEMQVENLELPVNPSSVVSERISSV
# Chain of Dopamine D5 receptor (P21918 whole entry): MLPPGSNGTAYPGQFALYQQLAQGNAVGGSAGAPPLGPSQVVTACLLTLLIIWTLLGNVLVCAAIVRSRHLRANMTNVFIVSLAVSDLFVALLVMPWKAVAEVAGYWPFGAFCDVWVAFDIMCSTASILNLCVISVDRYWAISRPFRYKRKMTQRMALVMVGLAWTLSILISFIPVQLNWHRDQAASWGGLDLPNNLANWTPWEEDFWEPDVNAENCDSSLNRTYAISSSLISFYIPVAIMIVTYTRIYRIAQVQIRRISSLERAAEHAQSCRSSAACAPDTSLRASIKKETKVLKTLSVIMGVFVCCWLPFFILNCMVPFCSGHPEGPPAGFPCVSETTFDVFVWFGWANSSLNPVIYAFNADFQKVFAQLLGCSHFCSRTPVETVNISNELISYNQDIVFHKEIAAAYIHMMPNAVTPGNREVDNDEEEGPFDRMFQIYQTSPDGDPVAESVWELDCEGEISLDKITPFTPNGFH
# Chain of Melanocortin MC4 receptor (P32245 whole entry): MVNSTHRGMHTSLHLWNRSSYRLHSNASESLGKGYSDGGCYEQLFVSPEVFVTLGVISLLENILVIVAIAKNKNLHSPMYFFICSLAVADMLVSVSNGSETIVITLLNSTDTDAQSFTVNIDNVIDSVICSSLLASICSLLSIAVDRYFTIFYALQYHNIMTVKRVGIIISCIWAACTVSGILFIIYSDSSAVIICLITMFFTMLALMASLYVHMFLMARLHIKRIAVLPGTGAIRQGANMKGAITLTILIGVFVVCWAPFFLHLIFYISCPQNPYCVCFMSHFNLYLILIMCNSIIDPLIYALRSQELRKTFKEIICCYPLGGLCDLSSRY
smiles,measurement,setting,value
"COc1ccccc1C1=CCN(Cc2nc3cc(Cl)ccc3c(=O)[nH]2)CC1 [Compound B-39, 7-chloro-2-((5,6-dihydro-4-(2-methoxyphenyl)pyridin-1(2H)-yl)methyl)quinazolin-4(3H)-one, reference compound]",Competitive binding (%) at 5 μM of tested compound,[1],54%
same,Competitive binding (%) at 5 μM of tested compound,[2],72%
same,Competitive binding (%) at 5 μM of tested compound,[3],−5%
same,Competitive binding (%) at 5 μM of tested compound,[4],4%
same,Competitive binding (%) at 5 μM of tested compound,[5],7%
same,Competitive binding (%) at 5 μM of tested compound,[6],46%
same,Competitive binding (%) at 5 μM of tested compound,[7],32%
same,Competitive binding (%) at 5 μM of tested compound,"[8]; Dopamine D4.4 receptor, 5 μM",57%
same,binding affinity to the D4.4 receptor (in words),[8]; Table 8,high binding affinity
same,Competitive binding (%) at 5 μM of tested compound,[9],5%
same,Competitive binding (%) at 5 μM of tested compound,[10],89%
same,Competitive binding (%) at 5 μM of tested compound,[11],56%
